# Experimental data published in publication PMC12037037 (Proceedings of the National Academy of Sciences of the …, 2025).
# How the values were obtained:
# [1] = system: male C57BL/6J mice; experiment: PCP-induced locomotion (Psychogenics); format: in vivo
# Protocol: IP) can block AMPH-induced hyperlocomotion in female, but not male, mice. (B) Pretreatment with (+)-JRT (1 mg/kg, IP) […]
# AMPH = (+)-amphetamine; PCP = phencyclidine; VEH = vehicle; ns = not significant. *p < 0.05, **p < 0.01, ***p < 0.001, ****p < 0.0001, as compared to the comparator(s) indicated by a horizontal bar. See Methods and SI Appendix, Table S1 for full details on statistics.
# (1 picture or pasted object on this page, not shown here) […]
# PCP-Induced Locomotion. The PCP-induced hyperlocomotion assay was performed by Psychogenics using male C57BL/6J mice that were approximately 8 weeks old at the time of the experiments. The experiment was performed during the animal’s light cycle phase. On the day of testing, animals were acclimated to the experimental room for at least 1 h prior to treatment. Animals were then administered with VEH or JRT (IP, 10 mL/kg) and placed in holding cages for 30 min, after which mice were placed in the open field chambers (27.3 x 27.3 x 30.3; Med Associates Inc., St Albans, VT). Baseline activity was recorded for 30 min. Next, mice received either PCP (5 mg/kg, IP, 10 ml/kg) or VEH and were returned to the open field chambers for a 60 min test session. Locomotion was assessed using consecutive infrared beam breaks. At the end of each session, the chambers were thoroughly cleaned. […]
# (§1) Reads were aligned to the GRCm39 genome assembly using STAR, processed with Picard, and counted with the Subread software. Transcript inclusion criteria consisted of a minimum raw expression level of 25 transcripts in a minimum of 4 samples. Surrogate variable analysis was conducted with the sva package 2023 release v3.5.0 in R and normalization and differential expression analysis was performed with DESeq2 v4.3 with a baseMean threshold of 10. Heatmaps were created with the pheatmap v1.0.12 with sample-wise z-scores plotted and both row and column grouping allowed using pearson's distances and ward.D for clustering. Gene-wise selection criteria for heatmaps were a baseMean expression threshold of 50 to focus on robustly expressed genes, p value < 0.05, and presence in the top 250 genes sorted by absolute value of log2FC. Additionally, z score was capped at 2 for visualization purposes. Schizophrenia gene sets were extracted from a recent TWAS study (30).
# (§2) For Figure S8G, the TWAS set was filtered for FDR < 0.01. Permutation testing was conducted to quantify the overlap of top genes from schizophrenia TWAS with the perm_test function from the bulkWarehouse package 2023 release v1.2.7.
# Briefly, the intersection of top differentially expressed genes and top TWAS genes is compared to an empirical distribution created by calculating the intersection with our top DEGs when randomly sampling candidate genes from our dataset equal to the size of the TWAS sample. […]
# [2] = system: male Sprague Dawley rats; experiment: Rat forced swim test (FST); format: in vivo; settings: for Swimming (Figure 6B) / Immobility (Figure 6B): 24 h after administration; for Swimming (Figure 6B): VEH 22.10 ± 1.929; for Immobility (Figure 6B): VEH 37.20 ± 1.867
# Protocol: as §1, §2
# Briefly, the intersection of top differentially expressed genes and top TWAS genes is compared to an empirical distribution created by calculating the intersection with our top DEGs when randomly sampling candidate genes from our dataset equal to the size of the TWAS sample. Selection criteria from the TWAS include an expression level of 25 transcripts in a minimum of 4 samples in our dataset, FDR < 0.01 from the TWAS and top 250 sorted by absolute value of log2FC. Selection criteria from our gene set were an expression level of 25 transcripts in a minimum of 4 samples, p value < 0.1 and top 250 sorted by absolute value of log2FC.
# Rat Forced Swim Test (FST). This study was performed by Psychogenics (Paramus, NJ). Male Sprague Dawley rats were purchased from Envigo (Indianapolis, IN), and were 8 weeks old at the time of the experiments. Upon receipt, they were assigned unique identification numbers (tail marked) and group housed in ventilated cages with 3 rats per cage. All animals […]
# remained housed in groups of three for the remainder of the study. All rats were acclimated to the colony room for up to one week prior to dosing. During the period of acclimation, rats were examined and handled daily, and weighed to assure adequate health and suitability. The room temperature was maintained between 20 °C and 23 °C with a relative humidity of 30%–70%. Lab Rodent Diet 5001 (W.F. Fisher, Cat # 11015) and water were provided ad libitum. Animals were randomly assigned across treatment groups. All testing was performed during the light phase of the light/dark cycle. Behavioral testing was conducted according to established protocols approved by the IACUC committee and PGI Standard Operation Procedures (SOP). Each forced swim chamber was constructed of clear acrylic (height = 40 cm; diameter = 20.3 cm). Only one rat was placed in the swim chamber at a time for each swim test. The water was changed and the chamber cleaned between each animal. The water depth was 16 cm in the first swim session (pre-test) and 30 cm in the second swim session (test). The water was maintained at 23 °C ± 1 °C for all swim sessions. At the end of each swim test rats were dried with paper towels and returned to the home cage. All animals were carefully monitored to ensure their safety in the swim test and any animal unable to maintain a posture with its nose above water was immediately removed from the water and not used further in the study. Animals were first subjected to a pre-test for 15 min. Immediately after the pre-test, they were administered compounds or VEH via i.p. injection (1 ml/kg). Racemic ketamine hydrochloride (10 mg/kg) was used as a positive control. A salt correction factor of 1.36 was used when preparing formulations of (+)-JRT to ensure that the dose corresponded to that of the free base. […]
# [3] = biological target: 5-HT1A (Homo sapiens, UniProt P08908); experiment: Functional assay at 5-HT1A (Fig. S4); format: cell-based
# Chain of 5-HT1A (P08908 whole entry): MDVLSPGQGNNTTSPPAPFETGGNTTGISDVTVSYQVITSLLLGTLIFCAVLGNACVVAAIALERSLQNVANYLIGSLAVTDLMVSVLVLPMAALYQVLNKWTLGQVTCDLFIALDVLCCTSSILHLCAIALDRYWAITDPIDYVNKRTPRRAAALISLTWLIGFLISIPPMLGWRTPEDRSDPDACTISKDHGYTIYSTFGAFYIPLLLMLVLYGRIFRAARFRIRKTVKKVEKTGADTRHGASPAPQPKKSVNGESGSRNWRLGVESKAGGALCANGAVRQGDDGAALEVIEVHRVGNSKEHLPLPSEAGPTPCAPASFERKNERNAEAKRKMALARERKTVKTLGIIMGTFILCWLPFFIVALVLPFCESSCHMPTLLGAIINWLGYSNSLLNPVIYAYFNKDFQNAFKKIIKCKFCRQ
# Source text: Figure S4. […] Radioligand binding (RLB) (top) and IP1 functional assays (bottom) for 5-HT1A (A), 5-HT5a (B), 5-HT6 (C), and 5-HT7 (D) receptors. Agonist or antagonist mode is indicated in the title of each graph. Data represent the mean ± SEM of 2 technical replicates.
# 5-carboxamidotryptamine; ND = not determined for incomplete curves.
# (1 picture or pasted object on this page, not shown here)
# [4] = biological target: 5-HT2A receptor membrane preparations obtained from PSYLI2 cells (Homo sapiens, UniProt P28223); experiment: Ligand binding kinetics with [3H]-LSD on PSYLI2 membrane preparations; settings: kinetics of competition binding vs [3H]-LSD
# Chain of 5-HT2A receptor membrane preparations obtained from PSYLI2 cells (P28223 1-263 limits assumed): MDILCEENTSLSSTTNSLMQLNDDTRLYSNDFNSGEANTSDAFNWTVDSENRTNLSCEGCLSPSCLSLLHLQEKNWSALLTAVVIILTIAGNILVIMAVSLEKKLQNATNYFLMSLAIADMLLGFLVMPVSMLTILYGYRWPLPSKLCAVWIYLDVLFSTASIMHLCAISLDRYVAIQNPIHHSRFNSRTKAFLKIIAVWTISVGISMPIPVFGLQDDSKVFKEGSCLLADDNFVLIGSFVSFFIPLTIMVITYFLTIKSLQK
# Chain of 5-HT2A receptor membrane preparations obtained from PSYLI2 cells (P28223 316-471 limits assumed): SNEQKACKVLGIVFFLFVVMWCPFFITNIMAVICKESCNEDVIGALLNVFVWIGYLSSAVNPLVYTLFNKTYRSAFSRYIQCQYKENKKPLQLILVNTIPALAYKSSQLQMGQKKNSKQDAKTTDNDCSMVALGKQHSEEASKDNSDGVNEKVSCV
# [5] = biological target: T1, human recombinant 5-HT2AR (Homo sapiens, UniProt P28223); experiment: IP1 functional assay (5-HT2AR); format: cell-based; settings: 5-HT2A, functional assay relevant to G protein activation (IP1), agonist mode
# T1 construct: host or cells: CHO-K1
# T1 sequence (P28223 whole entry): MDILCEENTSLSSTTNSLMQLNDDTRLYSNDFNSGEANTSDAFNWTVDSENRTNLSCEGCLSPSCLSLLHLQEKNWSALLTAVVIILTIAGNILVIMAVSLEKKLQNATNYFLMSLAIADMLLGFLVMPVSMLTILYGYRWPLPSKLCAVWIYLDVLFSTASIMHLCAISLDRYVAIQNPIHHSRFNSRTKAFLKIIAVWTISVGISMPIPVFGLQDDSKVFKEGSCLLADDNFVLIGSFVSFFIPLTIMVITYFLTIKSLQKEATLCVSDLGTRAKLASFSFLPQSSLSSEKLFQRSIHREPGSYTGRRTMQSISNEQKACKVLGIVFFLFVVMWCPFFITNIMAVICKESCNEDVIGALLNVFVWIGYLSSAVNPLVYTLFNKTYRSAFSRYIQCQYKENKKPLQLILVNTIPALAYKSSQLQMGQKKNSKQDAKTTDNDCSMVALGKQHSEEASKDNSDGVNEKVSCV
# [6] = biological target: T2, 5-HT2CR (Homo sapiens, UniProt P28335); experiment: IP1 functional assay (5-HT2CR); format: cell-based; settings: 5-HT2C, IP1, agonist mode
# T2 construct: Epics Therapeutics S.A
# T2 sequence (P28335 33-458): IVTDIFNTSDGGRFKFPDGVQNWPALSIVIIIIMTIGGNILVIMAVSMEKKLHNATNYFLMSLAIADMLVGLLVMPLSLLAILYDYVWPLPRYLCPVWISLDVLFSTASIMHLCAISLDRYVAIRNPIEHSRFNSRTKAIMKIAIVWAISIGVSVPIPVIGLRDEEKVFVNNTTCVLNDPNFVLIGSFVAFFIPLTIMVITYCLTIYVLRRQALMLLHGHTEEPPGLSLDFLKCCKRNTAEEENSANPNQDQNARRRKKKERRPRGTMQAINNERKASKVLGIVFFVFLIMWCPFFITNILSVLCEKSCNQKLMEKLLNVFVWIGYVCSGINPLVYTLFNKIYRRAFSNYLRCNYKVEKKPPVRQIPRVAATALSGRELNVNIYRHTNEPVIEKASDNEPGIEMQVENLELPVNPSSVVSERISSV
compound,measurement,setting,value
CCN(CC)C(=O)[C@@H]1C=C2c3cccc4ccn(c34)C[C@H]2N(C)C1 [(+)-JRT],"Locomotion, infrared beam breaks (Figure 11B)",[1]; (+)-JRT (0.1) + PCP 5 mg/kg IP,30482 ± 2310
same,"Locomotion, infrared beam breaks (Figure 11B)",[1]; (+)-JRT (0.3) + PCP 5 mg/kg IP,26618 ± 2425
same,"Locomotion, infrared beam breaks (Figure 11B)",[1]; (+)-JRT (1) + PCP 5 mg/kg IP,27253 ± 2401
same,Swimming (Figure 6B),[2]; 0.3mg/kg IP,31.70 ± 2.534
same,Immobility (Figure 6B),[2]; 0.3mg/kg IP,27.20 ± 2.546
same,Swimming (Figure 6B),[2]; 1.0mg/kg IP,31.50 ± 1.778
same,Immobility (Figure 6B),[2]; 1.0mg/kg IP,27.70 ± 1.850
same,Potency relative to ketamine in the forced swim test,[2]; lowest effective dose not determined,at least 100 fold
same,Functional activity at 5-HT1A,[3],agonist or partial agonist
same,"Dissociation rate from the 5-HT2A receptor, fold faster than LSD",[4],approximately 10 fold
same,Emax,[5],81%
same,Emax,[6],89%
